Results on ten compounds are retold here after patent US12180226B2, “Spirotricycle RIPK1 inhibitors and methods of uses thereof” (Merck Sharp & Dohme LLC, priority 2021, dated 2024).

The target of this test is RIPK1 (recombinant GST-RIPK1 kinase domain, residues 1-327) (Homo sapiens (Human), UniProt Q13546). The test is described as follows: RIPK1-ADP-Glo Enzymatic Assay. As to conditions: ADP-Glo; 25 nM GST-RIPK1, 300 μM ATP; assay lower limit ~25 nM; read-out: RIPK1 V0 Ec50. It counts as biochemical. Put shortly: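 Using dephosphorylated MBP (3 μM) as substrate and 300 μM ATP, 25 nM baculovirus-produced enzyme was reacted for 150 min after a 30-min compound pre-incubation. Luminescent ADP detection followed; lower confidence limit ~25 nM.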

Bounds are passed on as bounds.

RIPK1 (recombinant GST-RIPK1 kinase domain, residues 1-327), sequence (Q13546 1-327): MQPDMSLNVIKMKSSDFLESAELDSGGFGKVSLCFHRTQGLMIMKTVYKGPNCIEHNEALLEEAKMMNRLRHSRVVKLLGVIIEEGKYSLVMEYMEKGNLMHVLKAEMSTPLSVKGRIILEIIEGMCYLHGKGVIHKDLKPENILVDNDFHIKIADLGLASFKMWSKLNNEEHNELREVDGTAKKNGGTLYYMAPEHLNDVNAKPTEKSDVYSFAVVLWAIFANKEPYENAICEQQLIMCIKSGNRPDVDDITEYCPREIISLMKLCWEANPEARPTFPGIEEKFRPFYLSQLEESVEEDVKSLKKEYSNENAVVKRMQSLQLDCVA

Take `CC1CN(c2cc(C#N)ncn2)CCC12O[C@@H]1CC[C@@H](c3ccccc3)N1C2=O` (stereo partly drawn) [Example 4.236, 6-[(4R,5′S,7a′R)-3-methyl-3′-oxo-5′-phenyltetrahydro-1H,3′H-spiro[piperidine-4,2′-pyrrolo[2,1-b] [1,3]oxazol]-1-yl]pyrimidine-4-carbonitrile]: the EC50 (as a rule, the concentration that produces a half-maximal response) came to 50 nM.
Under `N#Cc1cnc(N2CCC3(CC2)O[C@@H]2CC[C@@H](c4cc(F)cc(F)c4)N2C3=O)cc1F` [Example 4.75, 6-[(5′S,7a′R)-5′-(3,5-difluorophenyl)-3′-oxotetrahydro-1H,3′H-spiro[piperidine-4,2′-pyrrolo[2,1-b] [1,3]oxazol]-1-yl]-4-fluoropyridine-3-carbonitrile] stands less than 25 nM; under `C#Cc1ccc(N2CCC3(CC2)O[C@@H]2CC[C@@H](c4ccccc4)N2C3=O)n2ncnc12` [Example 21.24, (5′S,7a′R)-1-(8-ethynyl[1,2,4]triazolo [1,5-a]pyridin-5-yl)-5′-phenyltetrahydro-3′H-spiro[piperidine-4,2′-pyrrolo[2,1-b][1,3]oxazol]-3′-one], less than 25 nM; under `O=C1N2[C@@H](CC[C@H]2c2ccc(F)cc2)OC12CCN(c1ccnc3c(F)cnn13)CC2` [Example 4.124, (5′S,7a′R)-5′-(4-fluorophenyl)-1-(3-fluoropyrazolo[1,5-a]pyrimidin-7-yl)tetrahydro-3′H-spiro[piperidine-4,2′-pyrrolo[2,1-b] [1,3]oxazol]-3′-one], less than 25 nM.
`N#Cc1cc(N2CCC3(CC2)O[C@@H]2CC[C@@H](c4ccccc4)N2C3=O)ncn1` [Example 4.40, 6-[(5′S,7a′R)-3′-oxo-5′-phenyltetrahydro-1H,3′H-spiro[piperidine-4,2′-pyrrolo[2,1-b] [1,3]oxazol]-1-yl]pyrimidine-4-carbonitrile]: the EC50 came out at 32.2 nM.
For the compound `COc1nc(N2CCC3(CC2)O[C@@H]2CC[C@@H](c4cc(F)cc(F)c4)N2C3=O)ncc1C#N` [Example 4.38, 2-[(5′S,7a′R)-5′-(3,5-difluorophenyl)-3′-oxotetrahydro-1H,3′H-spiro[piperidine-4,2′-pyrrolo[2,1-b] [1,3]oxazol]-1-yl]-4-methoxypyrimidine-5-carbonitrile], the EC50 was 12 nM.
Under `O=C1N2[C@H](OC13CCN(c1ccnc4c(F)cnn14)CC3)[C@@H](F)C[C@H]2c1ccccc1` [Example 9.1, (5′S,7′S,7a′R)-7′-Fluoro-1-(3-fluoropyrazolo[1,5-a]pyrimidin-7-yl)-5′-phenyltetrahydro-3′H-spiro[piperidine-4,2′-pyrrolo[2,1-b]oxazol]-3′-one] stands less than 25 nM.
Turning to `O=C(NC1(C(F)(F)F)CC1)c1nc(N2CCC3(CC2)O[C@@H]2CC[C@@H](c4cc(F)cc(F)c4)N2C3=O)ncc1F` [Example 7.10, 2-[(5′S,7a′R)-5′-(3,5-difluorophenyl)-3′-oxotetrahydro-1H,3′H-spiro[piperidine-4,2′-pyrrolo[2,1-b][1,3]oxazol]-1-yl]-5-fluoro-N-[1-(trifluoromethyl)cyclo-propyl]pyrimidine-4-carboxamide], the EC50 turned out to be 147 nM.
Under `O=C(c1cnc2cnccn12)N1CCC2(CC1)O[C@@H]1CC[C@@H](c3cc(F)cc(F)c3)N1C2=O` [Example 5.67, (5′S,7a′R)-5′-(3,5-difluoro-phenyl)-1-(imidazo[1,2-a]pyrazine-3-carbonyl)-tetrahydro-3′H-spiro [piperidine-4,2′-pyrrolo-[2,1-b]oxazol]-3′-one] stands 135 nM; under `O=C1N2[C@@H](CC[C@H]2c2ccccc2)OC12CN(c1ncnc3ccnn13)C2` [Example 4.137, (5′S,7a′R)-5′-phenyl-1-(pyrazolo[1,5-a] [1,3,5]triazin-4-yl)tetrahydro-3′H-spiro[azetidine-3,2′-pyrrolo[2,1-b] [1,3]oxazol]-3′-one], 235 nM.
